Converted amounts (≈) assume the structure as drawn. Where a name gives a salt, the structure may show the parent alone. Read-outs that look alike come from different tables or passages of the source.
How the values were obtained:
Experiment in all cases: MIC, microdilution broth method
VSE775 = type: cell-based, Enterococcus faecalis; parameters: MIC, VSE775: unit not given beside the values; details: for MIC, VSE775: ESKAPE panel, Gram-positive
EMRSA16 = type: cell-based, Staphylococcus aureus; details: for MIC, EMRSA16: ESKAPE panel, Gram-positive
PA01 = type: cell-based, Pseudomonas aeruginosa; details: for MIC, PA01: ESKAPE panel, Gram-negative
M6 = type: cell-based; details: for MIC, M6: ESKAPE panel, Gram-negative
VRE12204 = type: cell-based, Enterococcus faecium; details: in µg/mL; for MIC, VRE12204: ESKAPE panel, Gram-positive; for MIC: VRE12204
EMRSA15 = type: cell-based, Staphylococcus aureus; details: for MIC, EMRSA15: ESKAPE panel, Gram-positive
VRE12201 = type: cell-based, Enterococcus faecalis; details: for MIC, VRE12201: ESKAPE panel, Gram-positive
EC12923 = type: cell-based; details: for MIC, EC12923: ESKAPE panel, Gram-negative
Ab17978 = type: cell-based; details: for MIC, Ab17978: ESKAPE panel, Gram-negative
KP13368 = type: cell-based; details: for MIC, KP13368: ESKAPE panel, Gram-negative
MSSA9144 = type: cell-based, Staphylococcus aureus; details: for MIC, MSSA9144: ESKAPE panel, Gram-positive
AYE = type: cell-based, Acinetobacter baumannii; details: in µg/mL; for MIC: AYE, Normal (no PMBN)
[1] = Ab17978, Normal (no PMBN), in µg/mL
[2] = PA01, Normal (no PMBN), in µg/mL
[3] = KP13368, Normal (no PMBN), in µg/mL

MIC, VSE775 (VSE775) | MIC, EMRSA16 (EMRSA16; in µg/mL) | MIC, PA01 (PA01; in µg/mL) | MIC, M6 (M6; in µg/mL) | MIC, VRE12204 (VRE12204) | MIC, EMRSA15 (EMRSA15; in µg/mL) | MIC, EC12923 (EC12923; in µg/mL) | MIC, Ab17978 (Ab17978; in µg/mL) | Compound | MIC (VSE775; VSE775, in µg/mL) | MIC (EMRSA16; EMRSA16, in µg/mL) | MIC (M6; M6, Normal (no PMBN), in µg/mL) | MIC (AYE) | MIC (VRE12204) | MIC (VRE12201; VRE12201, in µg/mL) | MIC (Ab17978; [1]) | MIC (MSSA9144; MSSA9144, in µg/mL) | MIC (PA01; [2]) | MIC (EMRSA15; EMRSA15, in µg/mL) | MIC (EC12923; EC12923, in µg/mL) | MIC (KP13368; [3]) | further results
4 | 16-32 | 32-64 | 8 | 4 | 16 | 2 | 2 | C[C@H]1COc2c(N3CCC(N4CCOCC4)C3)c(F)cc3c(=O)c(C(=O)O)cn1c23 (stereo partly drawn) [KSN-L33, (3S)-9-fluoro-3-methyl-10-(3-morpholinopyrrolidin-1-yl)-7-oxo-2,3-dihydro-7H-[1,4]oxazino[2,3,4-ij]quinoline-6-carboxylic acid] |  |  |  |  |  |  |  |  |  |  |  |  | MIC, VRE12201 (VRE12201; in µg/mL): 2; MIC, KP13368 (KP13368): 32 mg/L (≈ 76.7 µM); MIC, MSSA9144 (MSSA9144; in µg/mL): 0.25
< 0.125 - 0.5 | 2 | 64 | 4 | 1-4 | 2 | 2 | 2 | C[C@H]1COc2c(N3CCN(c4ncc(F)cn4)CC3)c(F)cc3c(=O)c(C(=O)O)cn1c23 [ML-83-010] |  |  |  |  |  |  |  |  |  |  |  |  | MIC (VSE775; Enterococcus faecalis, Enterococcus (VRE775), Gram-Positive, read-out: MIC): 0.5 µg/mL (≈ 1.13 µM); MIC (EMRSA16; Staphylococcus aureus (EMRSA16), Gram-Positive (Table 14), read-out: MIC): 2 µg/mL (≈ 4.51 µM); MIC (PA01; Pseudomonas aeruginosa (PA01), Gram-Negative, read-out: MIC): 64 mg/L (≈ 144 µM); MIC (M6; Klebsiella pneumoniae (M6), Gram-Negative, read-out: MIC): 4 mg/L (≈ 9.02 µM); MIC (EMRSA15; Staphylococcus aureus, Staphylococcus aureus (EMRSA15), Gram-Positive (Table 14), read-out: MIC): 2 mg/L (≈ 4.51 µM); MIC (VRE12201; Enterococcus faecalis, Enterococcus (VRE12201), Gram-Positive, read-out: MIC): ≤ 0.125 mg/L; MIC (EC12923; Escherichia coli (EC12923), Gram-Negative, read-out: MIC): 2 mg/L (≈ 4.51 µM); MIC (Ab17978; Acinetobacter baumannii (AB17978), Gram-Negative, read-out: MIC): 2 mg/L (≈ 4.51 µM); MIC, KP13368 (KP13368): 32 mg/L (≈ 72.2 µM); MIC (KP13368; Klebsiella pneumoniae (KP13368), Gram-Negative, read-out: MIC): 32 µg/mL (≈ 72.2 µM); MIC (MSSA9144; Staphylococcus aureus (MSSA9144), Gram-Positive, read-out: MIC): ≤ 0.125 µg/mL
≤0.125 | 4 | 8 | 1 | 1 | 1 | 1 | 0.25 | C[C@H]1COc2c(N3CC[C@H](Nc4ncc(N)cn4)C3)c(F)cc3c(=O)c(C(=O)O)cn1c23 [KSN-L62, (S)-10-((S)-3-((5-aminopyrimidin-2-yl)amino)pyrrolidin-1-yl)-9-fluoro-3-methyl-7-oxo-2,3-dihydro-7H-[1,4]oxazino[2,3,4-ij]quinoline-6-carboxylic acid] |  |  |  |  |  |  |  |  |  |  |  |  | MIC, AYE (AYE; ESKAPE panel, Gram-negative): 4; MIC, VRE12201 (VRE12201; in µg/mL): ≤0.125; MIC, KP13368 (KP13368): 16 mg/L (≈ 36.3 µM); MIC, MSSA9144 (MSSA9144; in µg/mL): ≤0.125
4 | 64 | 64 | 4 | 8 | 64 | 2 | 4 | C[C@H]1COc2c(N3CCC(N4CCN(C)CC4)C3)c(F)cc3c(=O)c(C(=O)O)cn1c23 (stereo partly drawn) [KSN-L31, (3S)-9-fluoro-3-methyl-10-(3-(4-methylpiperazin-1-yl)pyrrolidin-1-yl)-7-oxo-2,3-dihydro-7H-[1,4]oxazino[2,3,4-ij]quinoline-6-carboxylic acid] |  |  |  |  |  |  |  |  |  |  |  |  | MIC, VRE12201 (VRE12201; in µg/mL): 2; MIC, KP13368 (KP13368): 64 mg/L (≈ 149 µM); MIC, MSSA9144 (MSSA9144; in µg/mL): 0.5-1

The remaining lines, values behind:

Compound | MIC, VSE775 (VSE775) | MIC, EMRSA16 (EMRSA16; in µg/mL) | MIC, PA01 (PA01; in µg/mL) | MIC, M6 (M6; in µg/mL) | MIC, VRE12204 (VRE12204) | MIC, EMRSA15 (EMRSA15; in µg/mL) | MIC, EC12923 (EC12923; in µg/mL) | MIC, Ab17978 (Ab17978; in µg/mL) | MIC (VSE775; VSE775, in µg/mL) | MIC (EMRSA16; EMRSA16, in µg/mL) | MIC (M6; M6, Normal (no PMBN), in µg/mL) | MIC (AYE) | MIC (VRE12204) | MIC (VRE12201; VRE12201, in µg/mL) | MIC (Ab17978; [1]) | MIC (MSSA9144; MSSA9144, in µg/mL) | MIC (PA01; [2]) | MIC (EMRSA15; EMRSA15, in µg/mL) | MIC (EC12923; EC12923, in µg/mL) | MIC (KP13368; [3]) | further results
O=C(O)c1cn(C2CC2)c2cc(N3CCN(Cc4ccccc4)CC3)c(F)cc2c1=O [ML-77-046] |  |  |  |  |  |  |  |  | 2-4 | 32 | 2 | 64-128 | 4-8 | 1-2 | 0.25 | 0.12-0.25 |  |  |  |  | 
O=C(O)c1cn(C2CC2)c2cc(N3CCN(Cc4cccc5c4OCO5)CC3)c(F)cc2c1=O [ML-77-032] |  |  |  |  |  |  |  |  | 2 | 64 | 2 | 64 |  | 1 | 0.25 | 0.25-1 | 16 |  |  |  | 
Cc1cc(N2CCN(c3c(F)cc4c(=O)c(C(=O)O)cn5c4c3OC[C@@H]5C)CC2)nc(C(C)C)n1 [ML-83-012, hydrochloride] |  |  |  |  |  |  |  |  |  |  |  |  |  |  |  |  |  |  |  |  | MIC (VSE775; Enterococcus (VRE775), Gram-Positive): 0 to 5 µg/mL; MIC (EMRSA16; Staphylococcus aureus (EMRSA16), Gram-Positive (Table 14), hydrochloride): 2 µg/mL; MIC, PA01 (PA01; hydrochloride, in µg/mL): 32; MIC, M6 (M6; hydrochloride, in µg/mL): 16; MIC, EC12923 (EC12923; hydrochloride, in µg/mL): 4; MIC, Ab17978 (Ab17978; hydrochloride, in µg/mL): 8; MIC (KP13368; Klebsiella pneumoniae (KP13368), Gram-Negative): 64 µg/mL; MIC, MSSA9144 (MSSA9144; in µg/mL): 0.25; MIC (MSSA9144; Staphylococcus aureus (MSSA9144), Gram-Positive): 0.25 µg/mL
COC(=O)c1cnc(N2CCN(c3c(F)cc4c(=O)c(C(=O)O)cn5c4c3OC[C@@H]5C)CC2)nc1 [Compound 82-KSN-L8] |  |  |  |  |  |  |  |  | 4 | 16 | 4 |  | 4 | 2 | 2 | ≤0.12 | 32 | 8 | 4 | 32 | 
C[C@H]1COc2c(N3CCC(n4cccn4)CC3)c(F)cc3c(=O)c(C(=O)O)cn1c23 [ML-83-041, (S)-10-(4-(1H-pyrazol-1-yl)piperidin-1-yl)-9-fluoro-3-methyl-7-oxo-2,3-dihydro-7H-[1,4]oxazino[2,3,4-ij]quinoline-6-carboxylic acid] |  |  |  |  |  |  |  |  | 8 |  | 4 |  | 16 | 8 | 4-8 | 2 | 64 |  | 2 | 32 | 
O=C(O)c1cn(C2CC2)c2cc(N3CCN(Cc4ccc(CO)cc4)CC3)c(F)cc2c1=O [ML-77-147] |  |  |  |  |  |  |  |  | 1 | 8 | 0.5-1 | 16-32 |  | 0.5 | 0.25-0.5 | <0.12 |  | 8 |  |  | 
C[C@H]1COc2c(N3CCCN(c4cnccn4)CC3)c(F)cc3c(=O)c(C(=O)O)cn1c23 [ML-83-041 (5.16), (S)-9-fluoro-3-methyl-7-oxo-10-(4-(pyrazin-2-yl)-1,4-diazepan-1-yl)-2,3-dihydro-7H-[1,4]oxazino[2,3,4-ij]quinoline-6-carboxylic acid] |  |  |  |  |  |  |  |  | 1 | 8 | 2 | 64-128 | 4 | 0.5-1 | 1 | ≤0.125 | 16-32 | 4-8 | 1-2 | 16-32 | 
C[C@H]1COc2c(N3CCC(Nc4ncccn4)C3)c(F)cc3c(=O)c(C(=O)O)cn1c23 (stereo partly drawn) [Compound 82-KSN-L7, (3S)-9-fluoro-3-methyl-7-oxo-10-(3-(pyrimidin-2-ylamino)-pyrrolidin-1-yl)-2,3-dihydro-7H-[1,4]oxazino[2,3,4-ij]quinoline-6-carboxylic acid] |  |  |  |  |  |  |  |  | 1-2 | 4 | 2-4 | 64 | 4 | 0.5 | 1 | ≤0.125-4 | 16 | 4 | 1 | 16 | 
C[C@H]1COc2c(N3CCN(c4ccccn4)CC3)c(F)cc3c(=O)c(C(=O)O)cn1c23 [ML-83-0018, (S)-9-fluoro-3-methyl-7-oxo-w-(4-(pyridin-2-yl)piperazin-1-yl)-2,3-dihydro-7H-[1,4]oxazino[2,3,4-ij]quinoline-6-carboxylic acid] |  |  |  |  |  |  |  |  | 0.25-0.5 | 8 | 8 |  | 2 | 0.25 | 2 | ≤0.12 | 64 | 4 | 2-4 | 32 | 

Source: patent US11746116B2, “Antibiotic resistance breakers” (KING'S COLLEGE LONDON, priority 2017, dated 2023)
